# Data taken from paper doi:10.1101/2025.10.23.684218v2, “Development of a dual chemical probe for the USP16 and HDAC6 zinc-finger ubiquitin-binding domain” (biorxiv, 2025).
# Legend:
# [1] = target: T1, HDAC6-UBD (HDAC6 1109-1215) (Homo sapiens, UniProt Q9UBN7); experiment: SPR, steady state; assay type: binding
# T1 sequence (Q9UBN7 1109-1215): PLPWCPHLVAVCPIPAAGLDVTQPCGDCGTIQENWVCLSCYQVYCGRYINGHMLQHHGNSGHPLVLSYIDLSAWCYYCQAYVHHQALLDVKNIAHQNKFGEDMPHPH
# [2] = target: T2, USP16-UBD (USP16 25-185) (Homo sapiens, UniProt Q9Y5T5); experiment: SPR, steady state; assay type: binding
# T2 sequence (Q9Y5T5 25-185): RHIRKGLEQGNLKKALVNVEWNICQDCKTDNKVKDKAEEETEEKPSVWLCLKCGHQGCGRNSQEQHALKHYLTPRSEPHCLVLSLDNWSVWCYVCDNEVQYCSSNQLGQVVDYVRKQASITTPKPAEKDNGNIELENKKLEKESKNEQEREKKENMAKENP
# [3] = target: T1, HDAC6-UBD (HDAC6 1109-1215); experiment: biochemical; parameters: SPR, steady-state binding to immobilised biotinylated UBD proteins; conditions: read-out: SPR Kd µM (HDAC6)
# [4] = target: T2, USP16-UBD (USP16 25-185); experiment: biochemical; parameters: SPR, steady-state binding to immobilised biotinylated UBD proteins; conditions: read-out: SPR Kd µM (USP16)
# [5] = target: T1, HDAC6-UBD (HDAC6 1109-1215); experiment: SPR, steady state; assay type: binding; conditions: pH […] °C, […] DMSO
# [6] = target: T2, USP16-UBD (USP16 25-185); experiment: SPR, steady state; assay type: binding; conditions: pH […] °C, […] DMSO
SMILES,Kd [1] [nM],Kd [2] [nM],further results
"C[C@@H](c1ccccc1F)N(C)C(=O)Cn1c(CCC(=O)O)nc2c(Cl)cccc2c1=O [compound 13, (S)-3-(8-Chloro-3-(2-((1-(2-fluorophenyl)ethyl)(methyl)amino)-2-oxoethyl)-4-oxo-3,4-dihydroquinazolin-2-yl)propanoic Acid]",31300 ± 2500,2900 ± 490,–
COc1ccccc1CN(C)C(=O)Cn1c(CCC(=O)O)nc2c(Cl)cccc2c1=O [compound 2],–,5600 ± 2100,–
Cn1c(CCC(=O)O)nc2ccccc2c1=O [DATR31],–,–,Kd [3]: 2.7 µM; Kd [4]: 130 µM
"COc1ccccc1C(C)N(C)C(=O)Cn1c(CCC(=O)O)nc2c(Cl)cccc2c1=O (stereo not shown) [compound 4, 3-(8-chloro-3-(2-((1-(2-methoxyphenyl)ethyl)(methyl)amino)-2-oxoethyl)-4-oxo-3,4-dihydroquinazolin-2-yl)propanoic acid]",–,–,KD [5]: complete loss of binding activity for both USP16-UBD and HDAC6-UBD; KD [6]: complete loss of binding activity for both USP16-UBD and HDAC6-UBD
O=C(O)CCc1nc2c(Cl)cccc2c(=O)n1CC(=O)NCc1ccccc1F [compound 10],–,400 ± 150,–
O=C(O)CCc1nc2ccccc2c(=O)n1CC(=O)NCC1CCCCC1 [UBXXML9098],–,–,Kd [4]: 4.8 µM
Cc1ccccc1CNC(=O)Cn1c(CCC(=O)O)nc2c(Cl)cccc2c1=O [compound 8],–,1800 ± 960,–
"O=C(O)CCc1nc2c(Cl)cccc2c(=O)n1CC(=O)NCC1CCCOC1 (stereo not shown) [compound 6, 3-(8-Chloro-4-oxo-3-(2-oxo-2-(((tetrahydro-2H-pyran-3-yl)methyl)amino)ethyl)-3,4-dihydroquinazolin-2-yl)propanoic Acid]",2100 ± 70,7800 ± 990,–
"COc1ccccc1C(C)NC(=O)Cn1c(CCC(=O)O)nc2c(Cl)cccc2c1=O (stereo not shown) [compound 3, 3-(8-chloro-3-(2-((1-(2-methoxyphenyl)ethyl)amino)-2-oxoethyl)-4-oxo-3,4-dihydroquinazolin-2-yl)propanoic acid]",50 ± 30,440,–
COc1ccccc1CNC(=O)Cn1c(CCC(=O)O)nc2c(F)cccc2c1=O [UBXXML299],–,–,Kd [4]: 11 µM
"C[C@H](NC(=O)Cn1c(CCC(=O)O)nc2c(Cl)cccc2c1=O)c1ccccc1F [compound 12, (S)-3-(8-Chloro-3-(2-((1-(2-fluorophenyl)ethyl)amino)-2-oxoethyl)-4-oxo-3,4-dihydroquinazolin-2-yl)propanoic Acid]",50 ± 10,210 ± 30,–
COc1ccccc1CNC(=O)Cn1c(CCC(=O)O)nc2ccccc2c1=O [UBXXML264],–,–,Kd [4]: 13 µM
"CCOc1ccccc1CNC(=O)Cn1c(CCC(=O)O)nc2c(Cl)cccc2c1=O [compound 7, 3-(8-chloro-3-(2-((2-ethoxybenzyl)amino)-2-oxoethyl)-4-oxo-3,4-dihydroquinazolin-2-yl)propanoic acid]",650 ± 270,2900 ± 1200,–
O=C(O)CCc1nc2c(Cl)cccc2c(=O)n1CC(=O)NCc1ccccc1Cl [compound 9],–,1200 ± 600,–
"CN(Cc1ccccc1F)C(=O)Cn1c(CCC(=O)O)nc2c(Cl)cccc2c1=O [compound 11, 3-(8-Chloro-3-(2-((2-fluorobenzyl)(methyl)amino)-2-oxoethyl)-4-oxo-3,4-dihydroquinazolin-2-yl)propanoic Acid]",32300 ± 18200,2500 ± 340,–
O=C(O)CCc1nc2ccccc2c(=O)n1CC(=O)NCc1ccccc1 [UBXXML47],–,–,Kd [4]: 11 µM
"CC(NC(=O)Cn1c(CCC(=O)O)nc2c(Cl)cccc2c1=O)c1c(F)cccc1F (stereo not shown) [compound 14, 3-(8-chloro-3-(2-((1-(2,6-difluorophenyl)ethyl)amino)-2-oxoethyl)-4-oxo-3,4-dihydroquinazolin-2-yl)propanoic acid]",–,< 100,–
